Publication PMC5770468, “Cardiac glycoside/aglycones inhibit HIV-1 gene expression by a mechanism requiring MEK1/2-ERK1/2 signaling” (Scientific Reports, 2018)

Key:
HIV-1 Gag-GFP expression = assay: Recovery of HIV-1 Gag-GFP expression by pathway inhibitors in the presence of CSs, HeLa rtTA-HIV(Gag-GFP) cells; type: cell-based; conditions: 12 μM U0126; 5.5 μM Selumetinib; 10 μM LY294002; 5 µM KB-R7943; CSs at ~IC80
Protocol: (§1) Figure 5 Effect of modulating NKA expression, [Ca^2+]i, and PI3K-AKT on HIV-1 gene expression. Depletion of the NKA perturbs HIV-1 RNA processing (n ≥ 3, mean, s.e.m.). HeLa rtTA-HIV(Gag-GFP) cells were transduced with two shRNAs (E6/E10) to knockdown expression of the NKA α1 subunit and their effect on HIV-1 gene expression analyzed. After positive selection of cells with puromycin for 24–48 h, HIV-1 expression was Dox induced for 20 h, and cells harvested for analyses. Total mRNA (and protein) was isolated from cells, reverse transcribed, and analyzed by qRT-PCR and data normalized to β-actin (a,c). Results are shown relative to Stuffer (+). (a) Expression levels of NKA α1 mRNAs assayed by qRT-PCR. (b) HIV-1 Gag expression assayed by p24^CA ELISA of cell lysates (40 μg). (c) Accumulation of HIV-1 US (black), SS (white), and MS (gray) mRNAs quantified by qRT-PCR. (d–g) CSs suppress HIV-1 gene expression independent of intracellular Ca^2+ flux/signaling and PI3K-AKT activation. HeLa rtTA-HIV(Gag-GFP) cells were pre-treated with either a chelator of [Ca^2+]i (5 µM BAPTA-AM, [Ca2+]ii), inhibitors of NCX Ca^2+-entry (5 µM KB-R7943, NCXi) or PI3K (10 μM LY294002, PI3Ki), or untreated (DMSO, no pathway inhibitor) for ~2 h prior to treatment with ~IC80s of CSs or DMSO for 4 h, and Dox induced for ~20 h. The pathway used by a CS to inhibit HIV-1 expression was determined by monitoring for recovery of Gag-GFP expression by measuring GFP fluorescence in cell lysates (and initially by plate scans of live/fixed cells, Supplementary Fig. S7a and S8c). (d) Levels of [Ca^2+]i measured by Fura Red AM™ (n ≥ 4, mean, s.e.m.). (e–f) Quantification of Gag-GFP expression by reducing SDS-PAGE in lysates (35 μg) of cells which were pre-treated with/without KB-R7943 (n ≥ 3–4 mean, s.e.m.). […] (g) Graph quantitating Gag expression by p24^CA ELISA in lysates of cells (35 μg) that were pre-treated with/without LY294002 (n ≥ 3, mean, s.e.m.). Statistical comparisons in (a–g) were performed as illustrated (black/gray dashed lines) or described in Methods.
Figure 6 CSs control HIV-1 gene expression through intracellular signaling. HeLa rtTA-HIV(Gag-GFP) cells were pre-treated with/without pathway inhibitor overnight (~15 h) and treated with ~IC80s of CSs. […] Graphs quantifying the activation level (phospho/total protein) of each MAP/MAPK by western blot. […] The signaling pathway(s) used by a CS to inhibit HIV-1 expression was determined by detecting Gag-GFP fluorescence in cell lysates (~35 μg) by reducing SDS-PAGE after pre-treatment of cells with a MEK1/2 (12 μM U0126, white), p38α/β/β2 (15 μM SB203580/p38i, gray), or JNK1/2/3 (1.25 μM SP600125/JNKi, hatched) inhibitor (n ≥ 5–7, 4–8, and 3–7, resp., mean, s.e.m.). […]

[Ca^2+]i = Intracellular Ca2+ by Fura Red AM in HeLa rtTA-HIV(Gag-GFP) cells; type: cell-based, human; conditions: 5 µM pre-treatment ~2 h
Protocol: as §1, with “(a) Expression levels of NKA α1 mRNAs assayed by qRT-PCR. (b) HIV-1 Gag expression assayed by p24^CA ELISA of cell lysates (40 μg).” left out, “(d–g) CSs suppress HIV-1 gene expression independent of intracellular Ca^2+ flux/signaling and PI3K-AKT activation. HeLa rtTA-HIV(Gag-GFP) cells were pre-treated with either a chelator of [Ca^2+]i (5 µM BAPTA-AM, [Ca2+]ii), inhibitors of NCX Ca^2+-entry (5 µM KB-R7943, NCXi) or PI3K (10 μM LY294002, PI3Ki), or untreated (DMSO, no pathway inhibitor) for ~2 h prior to treatment with ~IC80s of CSs or DMSO for 4 h, and Dox induced for ~20 h.” left out, “Statistical comparisons in (a–g) were performed as illustrated (black/gray dashed lines) or described in Methods.” left out

SMILES: N=C(N)SCCc1ccc(OCc2ccc([N+](=O)[O-])cc2)cc1 [KB-R7943]
- reversal of CS inhibition of HIV-1 Gag-GFP expression by pathway inhibitor pre-treatment (HIV-1 Gag-GFP expression): did not reverse
- effect on CS-triggered rise in [Ca^2+]i ([Ca^2+]i): blocked
